Assay results taken from the supplement of paper PMC4862054.

How the values were obtained:
Assay in all cases: normalised response (% of control), CellTox Green; higher = less cell death (100 = DMSO, 0 = benzethonium chloride kill control)
Conditions in all cases: incubation time: 72 h
[1] = system: BT-474
How it was run: (§1)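 Values are normalised signals, each belonging to one concentration of the series. Breast cancer cells (20 µl suspension) were seeded into 384-well plates with compound at 5 concentrations in 10-fold steps over a compound-specific 10,000-fold range and incubated 72 h. Readouts were CellTox Green fluorescence (485/520 nm), then CellTiter-Glo luminescence after 10 min at room temperature, with each plate set to 0.1 % DMSO as 100 and a positive kill control as 0.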

[2] = system: BT-549
How it was run: as §1

[3] = system: CAL-120
How it was run: as §1

[4] = system: CAL-148
How it was run: as §1

[5] = system: CAL-51
How it was run: as §1

[6] = system: CAL-85-1
How it was run: as §1

[7] = system: DU-4475
How it was run: as §1

[8] = system: HCC1143
How it was run: as §1

[9] = system: HCC1599
How it was run: as §1

[10] = system: HCC1937
How it was run: as §1

[11] = system: HDQ-P1
How it was run: as §1

[12] = system: Hs578T
How it was run: as §1

[13] = system: MCF-10A
How it was run: as §1

[14] = system: MDA-MB-231
How it was run: as §1

[15] = system: MDA-MB-436
How it was run: as §1

[16] = system: MDA-MB-453
How it was run: as §1

[17] = system: MDA-MB-468
How it was run: as §1

[18] = system: MFM-223
How it was run: as §1

Compound | normalised response [1] [%] | normalised response [2] [%] | normalised response [3] [%] | normalised response [4] [%] | normalised response [5] [%] | normalised response [6] [%] | normalised response [7] [%] | normalised response [8] [%] | normalised response [9] [%] | normalised response [10] [%] | normalised response [11] [%] | normalised response [12] [%] | normalised response [13] [%] | normalised response [14] [%] | normalised response [15] [%] | normalised response [16] [%] | normalised response [17] [%] | normalised response [18] [%]
CC[C@]1(O)C[C@@H]2CN(CCc3c([nH]c4ccccc34)[C@@](C(=O)OC)(c3cc4c(cc3OC)N(C)[C@H]3[C@@](O)(C(=O)OC)[C@H](OC(C)=O)[C@]5(CC)C=CCN6CC[C@]43[C@@H]65)C2)C1 [Vinblastine] (100 nM) | 67.5 | 66.2 | 88.2 | 75.2 | 32.1 | 61.1 | 93.8 | 56.7 | 78.4 | -65.7 | 96.8 | -12.8 | 46 | 28.5 | 88.4 | 103 | 19.1 | 54.7
COc1cccc2cc(-c3nc([C@H]4CC[C@H](C(=O)O)CC4)n4ncnc(N)c34)[nH]c12 [OSI-027] (10000 nM) | 94.2 | 113 | 96.9 | 72.5 | 94.5 | 89.2 | 99.7 | 115 | 107 | 112 | 106 | 130 | 101 | 130 | 109 | 103 | 86 | 84
CC[C@]1(O)C[C@@H]2CN(CCc3c([nH]c4ccccc34)[C@@](C(=O)OC)(c3cc4c(cc3OC)N(C)[C@H]3[C@@](O)(C(=O)OC)[C@H](OC(C)=O)[C@]5(CC)C=CCN6CC[C@]43[C@@H]65)C2)C1 [Vinblastine] (1000 nM) | 75.3 | 61.4 | 89.8 | 89.4 | 20.7 | 85.4 | 95.5 | 34.2 | 75.5 | 92.1 | 101 | -39.7 | 50.5 | 19.5 | 83.1 | 96.5 | 70.2 | 51.2
Cc1c2oc3c(C)ccc(C(=O)N[C@@H]4C(=O)N[C@H](C(C)C)C(=O)N5CCC[C@H]5C(=O)N(C)CC(=O)N(C)[C@@H](C(C)C)C(=O)O[C@@H]4C)c3nc-2c(C(=O)N[C@@H]2C(=O)N[C@H](C(C)C)C(=O)N3CCC[C@H]3C(=O)N(C)CC(=O)N(C)[C@@H](C(C)C)C(=O)O[C@@H]2C)c(N)c1=O [Dactinomycin] (100 nM) | 76.7 | 33.4 | 85.4 | 23.9 | 29.5 | 31.6 | 81.8 | 91 | 75.9 | 109 | 61.8 | 26.1 | -3.54 | 17.9 | 89.8 | 98 | 56.9 | 78.6
CN1CC[C@H](c2c(O)cc(O)c3c(=O)cc(-c4ccccc4Cl)oc23)[C@H](O)C1 [Alvocidib] (10000 nM) | 88.8 | 66.1 | 81.8 | 92 | 63.9 | -9.96 | 94.9 | 92.5 | 86 | 92.3 | 71.5 | 12.8 | -1.97 | 25.4 | 100 | 102 | 52.6 | 47.7
Nc1ccn([C@@H]2O[C@H](CO)[C@@H](O)[C@@H]2O)c(=O)n1 [Cytarabine] (1000 nM) | 103 | 111 | 106 | 69.9 | 37.4 | 109 | 109 | 112 | 104 | 117 | 107 | 85.2 | 115 | 106 | 83.5 | 112 | 159 | 97.5
Cc1ccc(F)c(NC(=O)Nc2ccc(-c3cccc4[nH]nc(N)c34)cc2)c1 [Linifanib] (100 nM) | 101 | 110 | 101 | 108 | 101 | 96.3 | 107 | 122 | 106 | 117 | 112 | 66.5 | 107 | 116 | 66.4 | 108 | 66.5 | 103
OC[C@H]1O[C@@H](n2cnc3c2N=CNC[C@H]3O)C[C@@H]1O [Pentostatin] (10000 nM) | 103 | 88.3 | 104 | 102 | 102 | 85.2 | 97.4 | 110 | 95.2 | 103 | 101 | 103 | 103 | 118 | 97.6 | 104 | 112 | 90.8
CS(=O)(=O)c1ccc(C(=O)Nc2ccc(Cl)c(-c3ccccn3)c2)c(Cl)c1 [Vismodegib] (10000 nM) | 102 | 119 | 100 | 105 | 102 | 138 | 100 | 76.7 | 98.8 | 84.1 | 113 | 82.8 | 85.5 | 94.1 | 85.5 | 80.9 | 226 | 98
S=c1[nH]cnc2nc[nH]c12 [Mercaptopurine] (1000 nM) | 94.6 | 77.2 | 104 | 102 | 102 | 104 | 97.6 | 88.2 | 92.1 | 23.3 | 97.3 | 104 | 108 | 96.1 | 100 | 101 | 155 | 85.8
CO[C@H]1C[C@@H]2CC[C@@H](C)[C@@](O)(O2)C(=O)C(=O)N2CCCC[C@H]2C(=O)O[C@H]([C@H](C)C[C@@H]2CC[C@@H](OC(=O)C(C)(CO)CO)[C@H](OC)C2)CC(=O)[C@H](C)/C=C(\C)[C@@H](O)[C@@H](OC)C(=O)[C@H](C)C[C@H](C)/C=C/C=C/C=C/1C [Temsirolimus] (100 nM) | 91.2 | 130 | 102 | 87.2 | 103 | 80 | 98.8 | 130 | 106 | 110 | 109 | -18.9 | 91.2 | 123 | 97.1 | 107 | 149 | 90.9
Cc1c2oc3c(C)ccc(C(=O)N[C@@H]4C(=O)N[C@H](C(C)C)C(=O)N5CCC[C@H]5C(=O)N(C)CC(=O)N(C)[C@@H](C(C)C)C(=O)O[C@@H]4C)c3nc-2c(C(=O)N[C@@H]2C(=O)N[C@H](C(C)C)C(=O)N3CCC[C@H]3C(=O)N(C)CC(=O)N(C)[C@@H](C(C)C)C(=O)O[C@@H]2C)c(N)c1=O [Dactinomycin] (1000 nM) | 89.6 | 93 | 101 | 79.9 | 95.1 | 13.8 | 104 | 59.3 | 113 | 124 | 94.9 | 40.6 | 41.4 | 52.3 | 116 | 104 | 52.8 | 60.5
C[C@]1(c2nc3c(C(N)=O)cccc3[nH]2)CCCN1 [Veliparib] (1000 nM) | 103 | 129 | 102 | 105 | 100 | 90 | 99 | 64.8 | 105 | 120 | 99 | 91.6 | 106 | 116 | 91.3 | 106 | 139 | 98.1
C=CCNC1=C2C[C@@H](C)C[C@H](OC)[C@H](O)[C@@H](C)/C=C(\C)[C@H](OC(N)=O)[C@@H](OC)/C=C\C=C(/C)C(=O)NC(=CC1=O)C2=O [Tanespimycin] (1000 nM) | 76.9 | 99.8 | 94.5 | 28.2 | 48.8 | 68.2 | 62.4 | 91.2 | 95.6 | 120 | 60.1 | 98.9 | 31.3 | 36.8 | 24.3 | 93.3 | 121 | 98.9
Nc1ccn([C@@H]2O[C@H](CO)[C@@H](O)[C@@H]2O)c(=O)n1 [Cytarabine] (10000 nM) | 100 | 99.4 | 108 | 69.2 | 26.1 | 91.7 | 101 | 64.6 | 95.5 | 96.1 | 111 | 134 | 48.4 | 113 | 93.6 | 104 | 156 | 107
